The values that follow come from patent US3975366A, “Process for the production of new pepstatins having anti-pepsin activity” (Zaidan Hojin Biseibutsu Kagaku Kenkyu Kai, priority 1971, dated 1976).

Structures are written as SMILES. ≈ marks a conversion by molar mass, not a printed value. Where “and” joins values, the source holds several entries; their conditions need not be identical. Equal entries are not always repeated. Structures can show the parent of a compound that is named as a salt.

For one series, the target named is pepsin (Sus scrofa, UniProt P00791). The series can be described thus: anti-pepsin activity (50% inhibition of pepsin, ID50). It is filed as biochemical. On the set-up: ID50 (50% inhibition against pepsin): unit not given beside the values. Conditions: for ID50 (50% inhibition against pepsin): amount giving 50% inhibition of pepsin.
A short description of another series: physchem. The note with it: methanol, organic solvent or mixture.

Chain of pepsin (P00791 60-385): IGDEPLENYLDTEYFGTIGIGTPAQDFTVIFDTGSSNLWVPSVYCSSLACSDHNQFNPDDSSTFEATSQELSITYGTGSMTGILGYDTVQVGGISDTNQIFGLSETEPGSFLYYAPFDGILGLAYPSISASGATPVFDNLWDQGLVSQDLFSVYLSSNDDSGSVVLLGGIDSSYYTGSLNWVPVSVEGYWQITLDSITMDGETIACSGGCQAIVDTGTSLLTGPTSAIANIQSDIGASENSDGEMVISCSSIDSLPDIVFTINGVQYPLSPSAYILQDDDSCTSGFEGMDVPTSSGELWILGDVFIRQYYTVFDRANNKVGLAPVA

Regarding `CCCCCC(=O)N[C@H](C(=O)N[C@H](C(=O)NC(CC(C)C)C(O)CC(=O)N[C@@H](C)C(=O)NC(CC(C)C)C(O)CC(=O)OCCC)C(C)C)C(C)C` (stereo partly drawn) [pepstatin B n-propylester], the “ID50 (50% inhibition against pepsin)” value on pepsin is on record as 0.073 γ.

Consider `CCCCCC(=O)N[C@H](C(=O)N[C@H](C(=O)NC(CC(C)C)C(O)CC(=O)N[C@@H](C)C(=O)NC(CC(C)C)C(O)CC(=O)OC)C(C)C)C(C)C` (stereo partly drawn) [methyl ester of pepstatin B], for which the “anti-pepsin activity compared with pepstatin methyl ester” value at pepsin (comparison in words) is reported as “the same as that of pepstatin methyl ester”. This compound also gave an Id50 on pepsin (unit not given, third crystals of Example 3) of 0.05. Also, the solubility (usually how much of the substance goes into solution per volume) in the series “physchem” was in the range of 5 to 10 mg/mL (≈ 7 to 14 mM).

`CCCCCC(=O)N[C@H](C(=O)N[C@H](C(=O)NC(CC(C)C)C(O)CC(=O)N[C@@H](C)C(=O)NC(CC(C)C)C(O)CC(=O)OCCCC)C(C)C)C(C)C` (stereo partly drawn) [new pepstatin B n-butyl ester]: the “ID50 (50% inhibition against pepsin)” value at pepsin is on record as 0.084 γ.

For the compound `CC(=NNc1ccc([N+](=O)[O-])cc1[N+](=O)[O-])C(CC(C)C)NC(=O)C(C)NC(=O)CC(O)C(CC(C)C)NC(=O)C(NC(=O)C(NC(=O)CC(C)C)C(C)C)C(C)C` (stereo not drawn), on pepsin (relative to pepstatin A), the “pepsin-inhibitory activity as % of the activity of pepstatin (pepstatin A)” value is given as 37%.

As for `CCCCCC(=O)N[C@H](C(=O)N[C@H](C(=O)NC(CC(C)C)C(O)CC(=O)N[C@@H](C)C(=O)NC(CC(C)C)C(O)CC(=O)O)C(C)C)C(C)C` (stereo partly drawn) [sodium salt of pepstatin B], the “ID50 (50% inhibition against pepsin)” value on pepsin is 0.055 γ and 0.05 γ.

In the case of `CCCCCC(=O)N[C@H](C(=O)N[C@H](C(=O)N[C@@H](CC(C)C)[C@@H](O)CC(=O)N[C@@H](C)C(=O)N[C@@H](CC(C)C)[C@@H](O)CC(=O)O)C(C)C)C(C)C` [pepstatin B], the solubility in “physchem” was determined as 100 mg/mL (≈ 143 mM).

On to `CCCCCC(=O)N[C@H](C(=O)N[C@H](C(=O)NC(CC(C)C)C(O)CC(=O)N[C@@H](C)C(=O)NC(CC(C)C)C(O)CC(=O)OCC)C(C)C)C(C)C` (stereo partly drawn) [pepstatin B ethyl ester], for which the “ID50 (50% inhibition against pepsin)” value at pepsin is on record as 0.054 γ.
